According to patent US20260234115A1, “LIPID COMPOUNDS, COMPOSITIONS, AND USES THEREOF” (Liberate Bio, Inc., priority 2023, published 2026):
Marks after values point to notes of the source that are not given here.

Columns and labels:
[1] = Dynamic light scattering: LNP particle size and PDI; format: physicochemical; details: for PDI N/P:6 / Size (nm) N/P:6: LNP
Method in brief: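 The LNPs were made by microfluidic mixing of the lipids in ethanol with mRNA in pH 4.0 citrate, then dialyzed into PBS pH 7.4. They were diluted in PBS pH 7.4, and particle size and PDI were measured by dynamic light scattering.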

[2] = Plate-based fluorescence (RiboGreen) assay: nucleic acid cargo content and encapsulation efficiency of LNPs; format: physicochemical; details: for EE (%) N/P:6: LNP
Method in brief: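 LNPs made by microfluidic mixing of ethanolic lipids with mRNA in pH 4.0 citrate, dialyzed into PBS pH 7.4. Cargo quantified by RiboGreen fluorescence against a standard curve: Triton-lysed samples give total, TE-only samples give free cargo; encapsulation efficiency from their ratio.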

mouse organs = test: In vivo activity screening in mice: organ mean total flux (p/s) of luciferase activity after injection of F2 LNP pools (Table 6, FIG. 7A-7C); details: luciferase mRNA
Method in brief: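 C57BL/6J mice given one tail-vein injection of pooled Formulation F2 LNPs carrying firefly luciferase mRNA (0.25-3 mg/kg) in PBS. At 4-6 h, s.c. D-luciferin given; organs imaged ex vivo by IVIS within 10-15 min, after saline cardiac perfusion. Mean total flux (p/s) per organ ROI.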

[3] = LNP compositions for Formulation F2 Study
[4] = LNP compositions for in vivo mouse study, four formulations (F1-F4) pooled, or pools of four compounds

In the case of `CCCCC/C=C\CCOC(=O)CCCCC(=O)OCC(COC(=O)CCCCC(=O)OCC/C=C\CCCCC)(COC(=O)CCC(CCCCCC)OC(=O)NCCN1CCCC1)COC(=O)CC12CC3CC(CC(C3)C1)C2` (stereo not drawn) [Compound 14, O6-[2-[[2-(1-adamantyl)acetyl]oxymethyl]-2-[[6-[(Z)-non-3-enoxy]-6-oxo-hexanoyl]oxymethyl]-3-[4-(2-pyrrolidin-1-ylethylcarbamoyloxy)decanoyloxy]propyl]O1-[(Z)-non-3-enyl]hexanedioate], the PDI [1, 3] is reported as 0.178, the “Particle Size (nm)” value [1, 3] is reported as 107.6 nm and the “Particle Size (nm)” value ([1]; LNP compositions for in vivo mouse study, four formulations (F1-F4) of the lipid compound pooled, or pools of four compounds (sixteen compositions)) is reported as 82.9 nm. For the same molecule, the PDI [1, 4] was 0.106, the “PDI N/P:6” value ([1]; Formulation F1, N/P 6) was 0.06 and the “Size (nm) N/P:6” value ([1]; Formulation F1, N/P 6) was 78 ± 2 nm. The “PDI N/P:6” value ([1]; Formulation F2, N/P 6) was 0.07, the “Size (nm) N/P:6” value ([1]; Formulation F2, N/P 6) was 90 ± 5 nm and the “PDI N/P:6” value ([1]; Formulation F3, N/P 6) was 0.14. For the same molecule, the “Size (nm) N/P:6” value ([1]; Formulation F3, N/P 6) was 83 ± 1 nm, the “PDI N/P:6” value ([1]; Formulation F4, N/P 6) was 0.09 and the “Size (nm) N/P:6” value ([1]; Formulation F4, N/P 6) was 68 ± 3 nm. For the same molecule, the EE % [2, 3] was 99%, the EE % [2, 4] was 96% and the “mRNA Content” value [2, 4] was 93 µg/mL. The “EE (%) N/P:6” value ([2]; Formulation F1, N/P 6) was 99%, the “EE (%) N/P:6” value ([2]; Formulation F2, N/P 6) was 99% and the “EE (%) N/P:6” value ([2]; Formulation F3, N/P 6) was 99%. The “EE (%) N/P:6” value ([2]; Formulation F4, N/P 6) was 98%, the “Organ Mean Total Flux Femur” value (mouse organs; Mouse 1, dose 0.3 mg/kg) was 9.3 p/s (×10^6) and the “Organ Mean Total Flux Heart” value (mouse organs; Mouse 1, dose 0.3 mg/kg) was 1.8 p/s (×10^6). For the same molecule, the “Organ Mean Total Flux Kidney” value (mouse organs; Mouse 1, dose 0.3 mg/kg) was 2.8 p/s (×10^6), the “Organ Mean Total Flux Liver” value (mouse organs; Mouse 1, dose 0.3 mg/kg) was 3910 p/s (×10^6) and the “Organ Mean Total Flux Lung” value (mouse organs; Mouse 1, dose 0.3 mg/kg) was 31.9 p/s (×10^6). The “Organ Mean Total Flux Muscle” value (mouse organs; Mouse 1, dose 0.3 mg/kg) was 9.5 p/s (×10^6), the “Organ Mean Total Flux Pancreas” value (mouse organs; Mouse 1, dose 0.3 mg/kg) was 14.9 p/s (×10^6) and the “Organ Mean Total Flux Spleen” value (mouse organs; Mouse 1, dose 0.3 mg/kg) was 31.5 p/s (×10^6). For the same molecule, the “Organ Mean Total Flux Femur” value (mouse organs; Mouse 2, dose 1.0 mg/kg) was 62.6 p/s (×10^6), the “Organ Mean Total Flux Heart” value (mouse organs; Mouse 2, dose 1.0 mg/kg) was 5.9 p/s (×10^6) and the “Organ Mean Total Flux Kidney” value (mouse organs; Mouse 2, dose 1.0 mg/kg) was 7.0 p/s (×10^6). For the same molecule, the “Organ Mean Total Flux Liver” value (mouse organs; Mouse 2, dose 1.0 mg/kg) was 2883 p/s (×10^6), the “Organ Mean Total Flux Lung” value (mouse organs; Mouse 2, dose 1.0 mg/kg) was 96.9 p/s (×10^6) and the “Organ Mean Total Flux Muscle” value (mouse organs; Mouse 2, dose 1.0 mg/kg) was 144.9 p/s (×10^6). The “Organ Mean Total Flux Pancreas” value (mouse organs; Mouse 2, dose 1.0 mg/kg) was 32.1 p/s (×10^6), the “Organ Mean Total Flux Spleen” value (mouse organs; Mouse 2, dose 1.0 mg/kg) was 107.0 p/s (×10^6) and the “Organ Mean Total Flux Femur” value (mouse organs; Mouse 3, dose 1.0 mg/kg) was 41.8 p/s (×10^6). For the same molecule, the “Organ Mean Total Flux Heart” value (mouse organs; Mouse 3, dose 1.0 mg/kg) was 8.6 p/s (×10^6), the “Organ Mean Total Flux Kidney” value (mouse organs; Mouse 3, dose 1.0 mg/kg) was 7.7 p/s (×10^6) and the “Organ Mean Total Flux Liver” value (mouse organs; Mouse 3, dose 1.0 mg/kg) was 4307 p/s (×10^6). For the same molecule, the “Organ Mean Total Flux Lung” value (mouse organs; Mouse 3, dose 1.0 mg/kg) was 49.2 p/s (×10^6), the “Organ Mean Total Flux Muscle” value (mouse organs; Mouse 3, dose 1.0 mg/kg) was 193.7 p/s (×10^6) and the “Organ Mean Total Flux Pancreas” value (mouse organs; Mouse 3, dose 1.0 mg/kg) was 23.4 p/s (×10^6). The “Organ Mean Total Flux Spleen” value (mouse organs; Mouse 3, dose 1.0 mg/kg) was 123.8 p/s (×10^6), the “Organ Mean Total Flux Femur” value (mouse organs; Mouse 5, dose 0.5 mg/kg) was 11.9 p/s (×10^6) and the “Organ Mean Total Flux Heart” value (mouse organs; Mouse 5, dose 0.5 mg/kg) was 4.4 p/s (×10^6). The “Organ Mean Total Flux Kidney” value (mouse organs; Mouse 5, dose 0.5 mg/kg) was 1.8 p/s (×10^6), the “Organ Mean Total Flux Liver” value (mouse organs; Mouse 5, dose 0.5 mg/kg) was 1303 p/s (×10^6) and the “Organ Mean Total Flux Lung” value (mouse organs; Mouse 5, dose 0.5 mg/kg) was 18.9 p/s (×10^6). For the same molecule, the “Organ Mean Total Flux Muscle” value (mouse organs; Mouse 5, dose 0.5 mg/kg) was 34.1 p/s (×10^6), the “Organ Mean Total Flux Pancreas” value (mouse organs; Mouse 5, dose 0.5 mg/kg) was 1.9 p/s (×10^6) and the “Organ Mean Total Flux Spleen” value (mouse organs; Mouse 5, dose 0.5 mg/kg) was 20.8 p/s (×10^6). The “Organ Mean Total Flux Femur” value (mouse organs; Mouse 6, dose 0.5 mg/kg) was 9.1 p/s (×10^6), the “Organ Mean Total Flux Heart” value (mouse organs; Mouse 6, dose 0.5 mg/kg) was 1.6 p/s (×10^6) and the “Organ Mean Total Flux Kidney” value (mouse organs; Mouse 6, dose 0.5 mg/kg) was 3.2 p/s (×10^6). For the same molecule, the “Organ Mean Total Flux Liver” value (mouse organs; Mouse 6, dose 0.5 mg/kg) was 676.3 p/s (×10^6), the “Organ Mean Total Flux Lung” value (mouse organs; Mouse 6, dose 0.5 mg/kg) was 17.3 p/s (×10^6) and the “Organ Mean Total Flux Muscle” value (mouse organs; Mouse 6, dose 0.5 mg/kg) was 27.6 p/s (×10^6). For the same molecule, the “Organ Mean Total Flux Pancreas” value (mouse organs; Mouse 6, dose 0.5 mg/kg) was 14.7 p/s (×10^6), the “Organ Mean Total Flux Spleen” value (mouse organs; Mouse 6, dose 0.5 mg/kg) was 28.7 p/s (×10^6) and the “Organ Mean Total Flux Femur” value (mouse organs; Mouse 9, dose 0.5 mg/kg) was 13.3 p/s (×10^6). The “Organ Mean Total Flux Heart” value (mouse organs; Mouse 9, dose 0.5 mg/kg) was 1.2 p/s (×10^6), the “Organ Mean Total Flux Kidney” value (mouse organs; Mouse 9, dose 0.5 mg/kg) was 2.5 p/s (×10^6) and the “Organ Mean Total Flux Liver” value (mouse organs; Mouse 9, dose 0.5 mg/kg) was 721.0 p/s (×10^6). The “Organ Mean Total Flux Lung” value (mouse organs; Mouse 9, dose 0.5 mg/kg) was 10.4 p/s (×10^6), the “Organ Mean Total Flux Muscle” value (mouse organs; Mouse 9, dose 0.5 mg/kg) was 31.2 p/s (×10^6) and the “Organ Mean Total Flux Pancreas” value (mouse organs; Mouse 9, dose 0.5 mg/kg) was 10.2 p/s (×10^6). For the same molecule, the “Organ Mean Total Flux Spleen” value (mouse organs; Mouse 9, dose 0.5 mg/kg) was 32.2 p/s (×10^6), the “Organ Mean Total Flux Femur” value (mouse organs; Mouse 11, dose 0.5 mg/kg) was 10.1 p/s (×10^6) and the “Organ Mean Total Flux Heart” value (mouse organs; Mouse 11, dose 0.5 mg/kg) was 1.8 p/s (×10^6). The “Organ Mean Total Flux Kidney” value (mouse organs; Mouse 11, dose 0.5 mg/kg) was 0.9 p/s (×10^6), the “Organ Mean Total Flux Liver” value (mouse organs; Mouse 11, dose 0.5 mg/kg) was 360.7 p/s (×10^6) and the “Organ Mean Total Flux Lung” value (mouse organs; Mouse 11, dose 0.5 mg/kg) was 25.4 p/s (×10^6). The “Organ Mean Total Flux Muscle” value (mouse organs; Mouse 11, dose 0.5 mg/kg) was 24.2 p/s (×10^6), the “Organ Mean Total Flux Pancreas” value (mouse organs; Mouse 11, dose 0.5 mg/kg) was 4.2 p/s (×10^6) and the “Organ Mean Total Flux Spleen” value (mouse organs; Mouse 11, dose 0.5 mg/kg) was 26.2 p/s (×10^6). The “Organ Mean Total Flux Femur” value (mouse organs; Mouse 12, dose 0.5 mg/kg) was 9.3 p/s (×10^6), the “Organ Mean Total Flux Heart” value (mouse organs; Mouse 12, dose 0.5 mg/kg) was 1.8 p/s (×10^6) and the “Organ Mean Total Flux Kidney” value (mouse organs; Mouse 12, dose 0.5 mg/kg) was 2.2 p/s (×10^6). For the same molecule, the “Organ Mean Total Flux Liver” value (mouse organs; Mouse 12, dose 0.5 mg/kg) was 585.3 p/s (×10^6), the “Organ Mean Total Flux Lung” value (mouse organs; Mouse 12, dose 0.5 mg/kg) was 32.4 p/s (×10^6) and the “Organ Mean Total Flux Muscle” value (mouse organs; Mouse 12, dose 0.5 mg/kg) was 35.5 p/s (×10^6). For the same molecule, the “Organ Mean Total Flux Pancreas” value (mouse organs; Mouse 12, dose 0.5 mg/kg) was 3.5 p/s (×10^6), the “Organ Mean Total Flux Spleen” value (mouse organs; Mouse 12, dose 0.5 mg/kg) was 21.1 p/s (×10^6) and the “Organ Mean Total Flux Femur” value (mouse organs; Mouse 13, dose 0.5 mg/kg) was 8.3 p/s (×10^6). For the same molecule, the “Organ Mean Total Flux Heart” value (mouse organs; Mouse 13, dose 0.5 mg/kg) was 1.1 p/s (×10^6), the “Organ Mean Total Flux Kidney” value (mouse organs; Mouse 13, dose 0.5 mg/kg) was 5.7 p/s (×10^6) and the “Organ Mean Total Flux Liver” value (mouse organs; Mouse 13, dose 0.5 mg/kg) was 439.7 p/s (×10^6). For the same molecule, the “Organ Mean Total Flux Lung” value (mouse organs; Mouse 13, dose 0.5 mg/kg) was 16.8 p/s (×10^6), the “Organ Mean Total Flux Muscle” value (mouse organs; Mouse 13, dose 0.5 mg/kg) was 16.7 p/s (×10^6) and the “Organ Mean Total Flux Pancreas” value (mouse organs; Mouse 13, dose 0.5 mg/kg) was 5.3 p/s (×10^6). The “Organ Mean Total Flux Spleen” value (mouse organs; Mouse 13, dose 0.5 mg/kg) was 19.7 p/s (×10^6), the “Organ Mean Total Flux Femur” value (mouse organs; Mouse 14, dose 0.5 mg/kg) was 10.8 p/s (×10^6) and the “Organ Mean Total Flux Heart” value (mouse organs; Mouse 14, dose 0.5 mg/kg) was 2.0 p/s (×10^6). For the same molecule, the “Organ Mean Total Flux Kidney” value (mouse organs; Mouse 14, dose 0.5 mg/kg) was 4.6 p/s (×10^6), the “Organ Mean Total Flux Liver” value (mouse organs; Mouse 14, dose 0.5 mg/kg) was 240.7 p/s (×10^6) and the “Organ Mean Total Flux Lung” value (mouse organs; Mouse 14, dose 0.5 mg/kg) was 12.6 p/s (×10^6). The “Organ Mean Total Flux Muscle” value (mouse organs; Mouse 14, dose 0.5 mg/kg) was 41.1 p/s (×10^6), the “Organ Mean Total Flux Pancreas” value (mouse organs; Mouse 14, dose 0.5 mg/kg) was 7.6 p/s (×10^6) and the “Organ Mean Total Flux Spleen” value (mouse organs; Mouse 14, dose 0.5 mg/kg) was 24.0 p/s (×10^6).
